Results on 1 compound are retold here after patent publication US8916499B2, “Herbicidal compositions comprising 4-amino-3-chloro-5-fluoro-6-(4-chloro-2-fluoro-3-methoxyphenyl) pyridine-2-carboxylic acid or a derivative thereof and a protoporphyrinogen oxidase inhibitor” (Dow AgroSciences LLC, priority 2012, dated 2014).

Values joined by “and” are separate entries in the source; they are usually repeats but may differ in a detail not shown here. Equal entries are not always repeated.

In assay [1] the test system is LEFCH. Nature of the assay: Postemergence foliar-applied weed control, direct seeded rice, greenhouse (Example I). The class given is in vivo, Leptochloa chinensis (L.) Nees. The following applies: g ae/ha Compound A Benzyl Ester+g ai/ha saflufenacil: r26 8.75+0, r27 17.5+0, r28 0+5, r29 0+10, r30 8.75+5, r31 17.5+5, r32 8.75+10, r33 17.5+10.
For assay [2], the system named is CYPIR. The assay is described as above. The class given is in vivo, Cyperus iria L.
Assay [3] deals with ECHCO. The description is as above. The class given is in vivo, Echinochloa colona (L.) Link.
In assay [4] the test system is CYPRO. Nature of the assay: In-water applied weed control, transplanted paddy rice, greenhouse (Example II). The class given is in vivo, Cyperus rotundus L.
Assay [5] concerns IPOHE. Nature of the assay: Pre-emergence soil-applied weed control, greenhouse (Example IV). It counts as in vivo, Ipomoea hederacea (L.) Jacq. An excerpt:
Seeds or nutlets of the desired test plant species were planted in a soil matrix prepared by mixing a loam soil (32 percent silt, 23 percent clay, and 45 percent sand, with a pH of about 6.5 and an organic matter content of about 1.9 percent) and calcareous grit in an 80 to 20 ratio. The soil matrix was contained in plastic pots with a volume of 1 quart and a surface area of 83.6 square centimeters (cm^2).
Treatments consisted of the benzyl ester of 4-amino-3-chloro-5-fluoro-6-(4-chloro-2-fluoro-3-methoxy-phenyl)pyridine-2-carboxylic acid (compound A) formulated as an SC (suspension concentrate) and various herbicidal components alone and in combination. Forms of compound A were applied on an acid equivalent basis.
Other herbicidal components were applied on an acid equivalent or active ingredient basis and included the protoporphyrinogen oxidase (PPO)-inhibiting herbicides, flumioxazin formulated as Payload® and oxadiazon formulated as Ronstar® 50W.
Treatment requirements were calculated based upon the rates being tested, the concentration of active ingredient or acid equivalent in the formulation, and a 12 mL application volume at a rate of 187 L/ha.
For treatments comprised of formulated compounds, measured amounts of compounds were placed individually in 25 mL glass vials and diluted in a volume of 1.25% (v/v) Agri-Dex® crop oil concentrate (COC) to obtain 12× stock solutions. […] Application solutions were prepared by adding an appropriate amount of each stock solution (e.g., 1 mL) and diluted to the appropriate final concentrations with the addition of 10 mL of an aqueous mixture of 1.25% (v/v) COC so that the final spray solutions contained 1.25% (v/v) COC.
All stock solutions and applications solutions were visually inspected for compound compatibility prior to application. Spray solutions were applied to the soil with an overhead Mandel track sprayer equipped with a 8002E nozzles calibrated to deliver 187 L/ha over an application area of 0.503 m^2 at a spray height of 18 inches (46 cm) above average pot height. Control pots were sprayed in the same manner with the solvent blank.
The treated and control pots were placed in a greenhouse and top watered as needed. When required to ensure good germination and healthy plants, a fungicide treatment and/or other chemical or physical treatment was applied. The pots were maintained in a greenhouse with an approximate 14 hr photoperiod which was maintained at about 29° C. during the day and 26° C. during the night. Nutrients (Peters® Excel 15-5-15 5-Ca 2-Mg) were applied in the irrigation solution as needed and water was added on a regular basis. Supplemental lighting was provided with overhead metal halide 1000-Watt lamps as necessary. After approximately 4 weeks, the condition of the test plants as compared with that of the untreated plants was determined visually and scored on a scale of 0 to 100 percent where 0 corresponds to no injury or growth inhibition and 100 corresponds to complete kill.
Colby's equation was used to determine the herbicidal effects expected from the mixtures (Colby, S. R. 1967. Calculation of the synergistic and antagonistic response of herbicide combinations. Weeds 15:20-22.).
The following equation was used to calculate the expected activity of mixtures containing two active ingredients, A and B: Expected=A+B−(A×B/100)

Turning to `COc1c(Cl)ccc(-c2nc(C(=O)OCc3ccccc3)c(Cl)c(N)c2F)c1F` [Compound A Benzyl Ester, benzyl ester of 4-amino-3-chloro-5-fluoro-6-(4-chloro-2-fluoro-3-methoxy-phenyl)pyridine-2-carboxylic acid], the “Visual Weed Control (%) - 20 DAA LEFCH Obs” value in assay [1] was 30% and 50%. Moreover, the “Visual Weed Control (%) - 21 DAA CYPIR Obs” value is recorded as 30% in assay [2] (g ae/ha Compound A Benzyl Ester+g ai/ha bifenox (Fox ®): r17 8+0, r18 0+180, r19 0+360, r20 0+720, r21 8+180, r22 8+360, r23 8+720); 85% in assay [2] (g ae/ha Compound A Benzyl Ester+g ai/ha carfentrazone-ethyl: r11 8.75+0, r12 0+3.5, r13 0+7, r14 0+14, r15 8.75+3.5, r16 8.75+7, r17 8.75+14); 30% in assay [2] (g ae/ha Compound A Benzyl Ester+g ai/ha oxyfluorfen (technical): r27 4.38+0, r28 0+90, r29 0+180, r30 0+360, r31 4.38+90, r32 4.38+180, r33 4.38+360); 35% in assay [2] (g ae/ha Compound A Benzyl Ester+g ai/ha pyraflufen-ethyl: r17 8+0, r18 0+2.65, r19 0+5.3, r20 0+10.6, r21 8+2.65, r22 8+5.3, r23 8+10.6). Besides, in assay [2] (g ae/ha Compound A Benzyl Ester+g ai/ha saflufenacil: r38 4.38+0, r39 0+5, r40 0+10, r41 0+20, r42 4.38+5, r43 4.38+10, r44 4.38+20), the “Visual Weed Control (%) - 20 DAA CYPIR Obs” value is reported as 70%. In addition, the “Visual Weed Control (%) - 21 DAA ECHCO Obs” value in assay [3] (g ae/ha Compound A Benzyl Ester+g ai/ha acifluorfen sodium: r11 8+0, r12 0+140, r13 0+280, r14 8+140, r15 8+280) is recorded as 40%. Besides, the “Visual Weed Control (%) - 20 DAA ECHCO Obs” value in assay [3] (g ae/ha Compound A Benzyl Ester+g ai/ha pyraclonil: r15 4.38+0, r16 0+33.75, r17 0+67.5, r18 0+135, r19 4.38+33.75, r20 4.38+67.5, r21 4.38+135) was 40%; in assay [3] (g ae/ha Compound A Benzyl Ester+g ai/ha saflufenacil: r14 4.38+0, r15 8.75+0, r16 0+10, r17 0+20, r18 4.38+10, r19 8.75+10, r20 4.38+20, r21 8.75+20) it was 60% and 80%. The “Visual Weed Control (%) - 21 DAA CYPRO Obs” value in assay [4] (4.38 g ae/ha alone) is reported as 30%; in assay [4] (8.75 g ae/ha alone), 60%; in assay [4] (g ae/ha Compound A Benzyl Ester+g ai/ha oxyfluorfen (SC): r11 32+0, r12 0+135, r13 0+270, r14 32+135, r15 32+270), 90%. For the same compound, the “Visual Weed Control (%) - 20 DAA CYPRO Obs” value in assay [4] (g ae/ha Compound A Benzyl Ester+g ai/ha pyraclonil: r19 4.38+0, r20 8.75+0, r21 0+45, r22 0+90, r23 4.38+45, r24 8.75+45, r25 4.38+90, r26 8.75+90) turned out to be 20%. Further, the “Visual Weed Control (%) - 32 DAA IPOHE Obs” value was found to be 65% in assay [5] (8 g ae/ha alone) and 83% in assay [5] (16 g ae/ha alone). Moreover, the results for the “Visual Weed Control (%) - 28 DAA IPOHE Obs” value in assay [5] (16 g ae/ha alone) and in assay [5] (32 g ae/ha alone) were 13% and 23%, respectively.
